What was measured:
[1] = Plasma and ear skin concentration in IMQ model, day 6; format: in vivo, BALB/c mice; conditions: day 6, post 2h treatment, topical 0.5%
Protocol: On day 6, blood is collected by retro-orbital bleeding under isoflurane anesthesia prior to euthanasia. Blood is collected in K2-EDTA tubes and plasma is separated and stored at −80° C. for further analysis (for test item concentration).
On day 6, post 2h treatment, plasma and ear skin concentration of animals treated with the compound of Formula (I) are estimated. […] The concentration in the ear skin is close to 976-fold more than the plasma levels.

[2] = target: T1, Phosphodiesterase PDE1A (Homo sapiens, UniProt P54750); experiment: Phosphodiesterase PDE1A enzyme assay; format: biochemical; conditions: N=2, Example 3
T1 construct: host or cells: insect Sf9 cells
Text: (§1) Reference standards are run as an integral part of each assay to ensure the validity of the results obtained. Reference Compounds: • Phosphodiesterase PDE10A2 Papaverine • Phosphodiesterase PDE11A4 Dipyridamole • Phosphodiesterase PDE1A MMPX • Phosphodiesterase PDE2A EHNA • Phosphodiesterase PDE3A Cilostamide • Phosphodiesterase PDE4A1A Rolipram • Phosphodiesterase PDE4B1 Rolipram • Phosphodiesterase PDE5A Zaprinast • Phosphodiesterase PDE6 Zaprinast • Phosphodiesterase PDE7A IBMX • Phosphodiesterase PDE7B IBMX • Phosphodiesterase PDE8A1 Dipyridamole • Phosphodiesterase PDE9A2 Zaprinast
(§2) Phosphodiesterase PDE1A; Phosphodiesterase PDE5A; and Phosphodiesterase PDE9A2: • Source: Human recombinant insect Sf9 cells • Substrate: 0.10 μM […] • Vehicle: 1.00% DMSO • Significance Crit.: ≥50% of max stimulation or inhibition • Incubation Buffer: 10 mM Tris-HCl, pH 7.2, 10 mM MgCl2, 0.05% NaN3, 0.1% phosphate-free BSA • Quantitation Method: Quantitation of Fluorescein-GMP-IMAP • Pre-Incub. Time/Temp: 15 minutes @25° C. • Incubation Time/Temp: 30 minutes @25° C.
(§3) IC50 values are determined by a non-linear, least squares regression analysis using MathIQ™ (ID Business Solutions Ltd., UK). […] Where presented, the Hill coefficient (nH), defining the slope of the competitive binding curve, is calculated using MathIQ™. […]

[3] = target: T2, Phosphodiesterase PDE3A (Homo sapiens, UniProt Q14432); experiment: Phosphodiesterase PDE3A enzyme assay; format: biochemical; conditions: N=2, Example 3
T2 construct: host or cells: insect Sf9 cells
Text: as §1
as §2, with “PDE4A1A;” for “PDE1A;”, “PDE4B1; Phosphodiesterase PDE10A2; Phosphodiesterase PDE11A4; Phosphodiesterase PDE2A; Phosphodiesterase PDE3A; Phosphodiesterase PDE7A; Phosphodiesterase PDE7B;” for “PDE5A;”, “PDE8A1:” for “PDE9A2:”, “Fluorescein-AMP-IMAP” for “Fluorescein-GMP-IMAP”
(§4) IC50 values are determined by a non-linear, least squares regression analysis using MathIQ™ (ID Business Solutions Ltd., UK). […]

[4] = target: T3, Phosphodiesterase PDE4A1A (Homo sapiens, UniProt P27815); experiment: Phosphodiesterase PDE4A1A enzyme assay; format: biochemical
T3 construct: host or cells: insect Sf9 cells
Text: as §1
PDE4 assays are performed using methods adapted from the literature. See Richter W, et al. (2001) Identification of inhibitor binding sites of the cAMP-specific phosphodiesterase 4. Cell Signal. 13(4): 287-297; Wang H, et al. (2005) Multiple elements jointly determine inhibitor selectivity of cyclic nucleotide phosphodiesterases 4 and 7. J Biol Chem. 280(35): 30949-30955.
as §2, with “PDE4A1A;” for “PDE1A;”, “PDE4B1; Phosphodiesterase PDE10A2; Phosphodiesterase PDE11A4; Phosphodiesterase PDE2A; Phosphodiesterase PDE3A; Phosphodiesterase PDE7A; Phosphodiesterase PDE7B;” for “PDE5A;”, “PDE8A1:” for “PDE9A2:”, “Fluorescein-AMP-IMAP” for “Fluorescein-GMP-IMAP”
(§5) IC50 values are determined by a non-linear, least squares regression analysis using MathIQ™ (ID Business Solutions Ltd., UK). Where inhibition constants (Ki) are presented, the Ki values are calculated using the equation of Cheng and Prusoff (Cheng, Y., Prusoff, W. H., Biochem. Pharmacol. 22:3099-3108, 1973) using the observed IC50 of the tested compound, the concentration of radioligand employed in the assay, and the historical values for the KD of the ligand. Where presented, the Hill coefficient (nH), defining the slope of the competitive binding curve, is calculated using MathIQ™. […] Where IC50, Ki, and/or nH data are presented without Standard Error of the Mean (SEM), data are insufficient to be quantitative, and the values presented (Ki, IC50, nH) are interpreted with caution.
Reference standards are run as an integral part of each assay to ensure the validity of the results obtained. Rolipram is used for the PDE4 assays.
as §2, with “PDE4A1A:” for “PDE1A; Phosphodiesterase PDE5A; and Phosphodiesterase PDE9A2:”, “Fluorescein-AMP-IMAP” for “Fluorescein-GMP-IMAP”
as §5, with “W.H.,” for “W. H.,”

[5] = target: T4, Phosphodiesterase PDE5A (Homo sapiens, UniProt O76074); experiment: Phosphodiesterase PDE5A enzyme assay; format: biochemical; conditions: N=2, Example 3
T4 construct: host or cells: insect Sf9 cells
Text: as §1, §2, §3

[6] = target: T5, Phosphodiesterase PDE7A (Homo sapiens, UniProt Q13946); experiment: Phosphodiesterase PDE7A enzyme assay; format: biochemical; conditions: N=2, Example 3
T5 construct: host or cells: insect Sf9 cells
Text: as §1
as §2, with “PDE4A1A;” for “PDE1A;”, “PDE4B1; Phosphodiesterase PDE10A2; Phosphodiesterase PDE11A4; Phosphodiesterase PDE2A; Phosphodiesterase PDE3A; Phosphodiesterase PDE7A; Phosphodiesterase PDE7B;” for “PDE5A;”, “PDE8A1:” for “PDE9A2:”, “Fluorescein-AMP-IMAP” for “Fluorescein-GMP-IMAP”
as §4

[7] = target: T6, Phosphodiesterase PDE7B (Homo sapiens, UniProt Q9NP56); experiment: Phosphodiesterase PDE7B enzyme assay; format: biochemical; conditions: N=2, Example 3
T6 construct: host or cells: insect Sf9 cells
Text: as §1
as §2, with “PDE4A1A;” for “PDE1A;”, “PDE4B1; Phosphodiesterase PDE10A2; Phosphodiesterase PDE11A4; Phosphodiesterase PDE2A; Phosphodiesterase PDE3A; Phosphodiesterase PDE7A; Phosphodiesterase PDE7B;” for “PDE5A;”, “PDE8A1:” for “PDE9A2:”, “Fluorescein-AMP-IMAP” for “Fluorescein-GMP-IMAP”
as §4

[8] = target: T7, Phosphodiesterase PDE8A1 (Homo sapiens, UniProt O60658); experiment: Phosphodiesterase PDE8A1 enzyme assay; format: biochemical; conditions: N=2, Example 3
T7 construct: host or cells: insect Sf9 cells
Text: as §1
as §2, with “PDE4A1A;” for “PDE1A;”, “PDE4B1; Phosphodiesterase PDE10A2; Phosphodiesterase PDE11A4; Phosphodiesterase PDE2A; Phosphodiesterase PDE3A; Phosphodiesterase PDE7A; Phosphodiesterase PDE7B;” for “PDE5A;”, “PDE8A1:” for “PDE9A2:”, “Fluorescein-AMP-IMAP” for “Fluorescein-GMP-IMAP”
as §4

[9] = target: T8, Phosphodiesterase PDE11A4 (Homo sapiens, UniProt Q9HCR9); experiment: Phosphodiesterase PDE11A4 enzyme assay; format: biochemical; conditions: N=2, Example 3
T8 construct: host or cells: insect Sf9 cells
Text: as §1
as §2, with “PDE4A1A;” for “PDE1A;”, “PDE4B1; Phosphodiesterase PDE10A2; Phosphodiesterase PDE11A4; Phosphodiesterase PDE2A; Phosphodiesterase PDE3A; Phosphodiesterase PDE7A; Phosphodiesterase PDE7B;” for “PDE5A;”, “PDE8A1:” for “PDE9A2:”, “Fluorescein-AMP-IMAP” for “Fluorescein-GMP-IMAP”
as §4

[10] = Preclinical genotoxicity studies (mutations, clastogenic effects); conditions: in vitro or in vivo

T3 sequence (P27815 1-647 isoform P27815-4): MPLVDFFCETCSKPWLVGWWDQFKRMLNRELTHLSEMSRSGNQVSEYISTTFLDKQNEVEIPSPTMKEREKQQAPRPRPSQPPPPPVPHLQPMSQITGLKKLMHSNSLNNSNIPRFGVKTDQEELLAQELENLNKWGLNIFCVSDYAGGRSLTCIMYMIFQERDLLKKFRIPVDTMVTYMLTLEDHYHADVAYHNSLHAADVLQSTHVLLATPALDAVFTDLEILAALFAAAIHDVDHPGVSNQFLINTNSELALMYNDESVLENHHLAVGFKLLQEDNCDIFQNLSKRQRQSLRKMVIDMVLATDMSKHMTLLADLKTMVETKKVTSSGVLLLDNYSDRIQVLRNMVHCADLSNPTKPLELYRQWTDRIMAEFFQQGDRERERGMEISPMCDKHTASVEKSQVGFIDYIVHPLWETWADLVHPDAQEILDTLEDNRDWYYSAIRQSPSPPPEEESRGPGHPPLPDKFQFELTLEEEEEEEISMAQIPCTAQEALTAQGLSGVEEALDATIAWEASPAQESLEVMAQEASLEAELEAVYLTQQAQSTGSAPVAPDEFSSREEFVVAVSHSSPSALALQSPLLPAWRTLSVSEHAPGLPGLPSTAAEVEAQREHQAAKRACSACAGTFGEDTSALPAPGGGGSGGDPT
T8 sequence (Q9HCR9 whole entry): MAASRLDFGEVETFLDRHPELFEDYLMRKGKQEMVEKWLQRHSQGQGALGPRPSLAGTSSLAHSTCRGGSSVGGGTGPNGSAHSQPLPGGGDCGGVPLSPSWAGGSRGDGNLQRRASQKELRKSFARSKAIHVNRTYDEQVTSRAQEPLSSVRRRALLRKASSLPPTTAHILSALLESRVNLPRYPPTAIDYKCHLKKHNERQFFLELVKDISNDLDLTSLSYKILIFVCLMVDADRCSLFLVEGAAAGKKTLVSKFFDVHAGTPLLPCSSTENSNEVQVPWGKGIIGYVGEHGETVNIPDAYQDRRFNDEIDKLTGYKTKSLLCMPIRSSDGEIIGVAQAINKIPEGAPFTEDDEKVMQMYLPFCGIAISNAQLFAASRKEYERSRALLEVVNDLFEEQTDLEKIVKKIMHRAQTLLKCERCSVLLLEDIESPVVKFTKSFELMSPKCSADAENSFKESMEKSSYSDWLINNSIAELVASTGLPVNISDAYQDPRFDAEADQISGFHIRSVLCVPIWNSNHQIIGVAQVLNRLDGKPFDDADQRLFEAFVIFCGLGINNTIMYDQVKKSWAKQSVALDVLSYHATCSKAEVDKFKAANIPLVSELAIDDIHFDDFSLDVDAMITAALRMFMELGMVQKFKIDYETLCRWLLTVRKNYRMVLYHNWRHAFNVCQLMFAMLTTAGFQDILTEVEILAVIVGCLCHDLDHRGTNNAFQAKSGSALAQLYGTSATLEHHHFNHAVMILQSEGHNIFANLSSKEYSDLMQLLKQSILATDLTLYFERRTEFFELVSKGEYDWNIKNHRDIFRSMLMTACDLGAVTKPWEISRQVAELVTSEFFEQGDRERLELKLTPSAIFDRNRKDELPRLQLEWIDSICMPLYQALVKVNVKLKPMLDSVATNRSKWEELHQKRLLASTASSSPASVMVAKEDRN
T6 sequence (Q9NP56 whole entry): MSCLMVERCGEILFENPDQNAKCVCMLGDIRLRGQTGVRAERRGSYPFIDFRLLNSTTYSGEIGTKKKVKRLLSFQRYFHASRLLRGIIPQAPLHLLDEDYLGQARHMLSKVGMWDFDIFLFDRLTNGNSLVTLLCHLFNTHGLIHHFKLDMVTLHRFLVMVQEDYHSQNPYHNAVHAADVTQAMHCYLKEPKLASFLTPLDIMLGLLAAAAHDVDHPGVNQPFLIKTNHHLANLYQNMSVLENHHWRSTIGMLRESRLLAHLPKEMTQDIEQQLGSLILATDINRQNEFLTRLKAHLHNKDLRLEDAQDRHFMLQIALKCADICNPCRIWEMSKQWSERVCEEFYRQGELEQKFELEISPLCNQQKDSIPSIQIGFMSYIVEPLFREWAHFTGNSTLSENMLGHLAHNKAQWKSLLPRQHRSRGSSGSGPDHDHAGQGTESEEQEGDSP
T1 sequence (P54750 whole entry): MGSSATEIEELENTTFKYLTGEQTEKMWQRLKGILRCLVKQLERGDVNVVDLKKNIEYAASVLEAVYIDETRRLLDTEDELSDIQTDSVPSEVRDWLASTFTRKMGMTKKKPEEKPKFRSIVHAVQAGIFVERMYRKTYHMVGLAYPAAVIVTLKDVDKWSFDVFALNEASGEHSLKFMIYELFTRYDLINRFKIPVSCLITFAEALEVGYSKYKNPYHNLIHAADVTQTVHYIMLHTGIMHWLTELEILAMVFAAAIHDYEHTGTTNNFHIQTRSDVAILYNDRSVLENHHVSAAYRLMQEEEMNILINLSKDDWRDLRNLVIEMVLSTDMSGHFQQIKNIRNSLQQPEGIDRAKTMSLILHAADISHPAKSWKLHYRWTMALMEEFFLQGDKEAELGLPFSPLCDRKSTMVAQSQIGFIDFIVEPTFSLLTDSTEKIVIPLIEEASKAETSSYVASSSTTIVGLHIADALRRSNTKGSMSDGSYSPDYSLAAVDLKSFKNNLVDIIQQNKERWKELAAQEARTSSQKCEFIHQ
T5 sequence (Q13946 whole entry): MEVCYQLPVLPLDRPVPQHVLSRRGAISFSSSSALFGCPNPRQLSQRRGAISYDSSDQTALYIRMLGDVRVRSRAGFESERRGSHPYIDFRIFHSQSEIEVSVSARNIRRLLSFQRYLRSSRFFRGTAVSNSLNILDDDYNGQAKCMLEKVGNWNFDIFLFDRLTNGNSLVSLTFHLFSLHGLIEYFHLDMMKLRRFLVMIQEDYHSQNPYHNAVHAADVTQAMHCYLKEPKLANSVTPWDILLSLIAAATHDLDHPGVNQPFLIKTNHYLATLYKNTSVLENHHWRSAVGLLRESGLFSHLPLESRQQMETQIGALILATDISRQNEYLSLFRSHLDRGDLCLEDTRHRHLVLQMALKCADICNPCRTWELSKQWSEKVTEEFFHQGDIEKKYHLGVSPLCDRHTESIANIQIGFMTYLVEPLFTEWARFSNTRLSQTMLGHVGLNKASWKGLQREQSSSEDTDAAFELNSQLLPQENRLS
T7 sequence (O60658 whole entry): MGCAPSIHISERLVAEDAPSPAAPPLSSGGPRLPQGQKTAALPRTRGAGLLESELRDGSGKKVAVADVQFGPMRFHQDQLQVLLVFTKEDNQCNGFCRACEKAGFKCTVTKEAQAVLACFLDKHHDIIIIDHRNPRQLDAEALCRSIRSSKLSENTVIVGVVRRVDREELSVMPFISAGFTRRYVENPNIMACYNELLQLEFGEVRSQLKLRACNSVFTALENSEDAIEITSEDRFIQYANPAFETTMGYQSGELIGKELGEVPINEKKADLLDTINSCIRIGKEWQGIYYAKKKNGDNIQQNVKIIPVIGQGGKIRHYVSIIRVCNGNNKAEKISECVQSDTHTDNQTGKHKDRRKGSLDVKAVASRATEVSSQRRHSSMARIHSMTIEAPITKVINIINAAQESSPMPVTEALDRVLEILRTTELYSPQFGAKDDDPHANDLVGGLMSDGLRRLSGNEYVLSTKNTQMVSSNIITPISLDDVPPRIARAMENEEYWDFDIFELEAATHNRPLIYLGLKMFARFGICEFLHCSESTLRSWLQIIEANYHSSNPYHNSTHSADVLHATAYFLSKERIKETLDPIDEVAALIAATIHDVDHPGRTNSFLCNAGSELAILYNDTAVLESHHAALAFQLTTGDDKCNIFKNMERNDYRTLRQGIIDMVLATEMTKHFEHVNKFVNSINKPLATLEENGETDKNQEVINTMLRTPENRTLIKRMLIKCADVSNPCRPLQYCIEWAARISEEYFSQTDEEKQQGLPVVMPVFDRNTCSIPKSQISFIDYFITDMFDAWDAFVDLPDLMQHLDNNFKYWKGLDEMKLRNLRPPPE
T2 sequence (Q14432 whole entry): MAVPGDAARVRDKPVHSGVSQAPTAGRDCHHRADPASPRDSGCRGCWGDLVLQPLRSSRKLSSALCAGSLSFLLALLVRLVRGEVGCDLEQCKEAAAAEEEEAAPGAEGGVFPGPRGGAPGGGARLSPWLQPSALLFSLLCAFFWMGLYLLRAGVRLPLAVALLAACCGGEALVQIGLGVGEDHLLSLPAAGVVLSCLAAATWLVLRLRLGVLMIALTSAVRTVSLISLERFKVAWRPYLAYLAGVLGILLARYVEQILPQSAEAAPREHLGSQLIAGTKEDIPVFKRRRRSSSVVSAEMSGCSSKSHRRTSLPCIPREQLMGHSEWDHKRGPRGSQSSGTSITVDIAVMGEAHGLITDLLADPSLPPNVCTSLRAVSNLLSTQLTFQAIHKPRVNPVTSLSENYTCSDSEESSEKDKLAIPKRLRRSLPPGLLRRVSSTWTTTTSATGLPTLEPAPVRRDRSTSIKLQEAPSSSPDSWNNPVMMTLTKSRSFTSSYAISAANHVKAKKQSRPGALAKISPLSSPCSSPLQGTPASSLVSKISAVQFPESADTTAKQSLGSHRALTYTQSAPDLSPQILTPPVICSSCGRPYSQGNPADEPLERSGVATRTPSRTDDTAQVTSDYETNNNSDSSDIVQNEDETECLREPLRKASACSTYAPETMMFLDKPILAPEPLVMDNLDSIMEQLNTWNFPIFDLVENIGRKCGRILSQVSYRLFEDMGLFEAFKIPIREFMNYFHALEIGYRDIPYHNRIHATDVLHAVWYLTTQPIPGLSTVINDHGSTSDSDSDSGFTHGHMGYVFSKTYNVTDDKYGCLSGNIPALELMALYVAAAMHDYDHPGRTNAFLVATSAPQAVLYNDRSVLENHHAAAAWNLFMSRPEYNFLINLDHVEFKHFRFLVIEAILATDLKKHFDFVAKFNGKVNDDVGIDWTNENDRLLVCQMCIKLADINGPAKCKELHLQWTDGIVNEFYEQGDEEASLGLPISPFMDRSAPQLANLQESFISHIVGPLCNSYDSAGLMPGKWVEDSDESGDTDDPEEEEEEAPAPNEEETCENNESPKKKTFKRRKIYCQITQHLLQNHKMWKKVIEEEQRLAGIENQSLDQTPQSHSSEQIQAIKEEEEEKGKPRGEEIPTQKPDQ

CNc1nc(Nc2ccccc2)nc(OCC(F)(F)C(F)F)n1 [compound of Formula (I), N^2-methyl-N^4-phenyl-6-(2,2,3,3-tetrafluoropropoxy)-1,3,5-triazine-2,4-diamine]
Kp ([1]; BALB/c, mouse, ear skin / plasma, read-out: Concentration in the ear skin relative to plasma levels): ~976 | Concentrations in plasma and ear skin [1]: Significant concentrations | inhibition at 10 µM [2]: -8% | inhibition at 10 µM [3]: 6% | inhibition at 0.01 µM ([4]; 10 nM, N=2, Example 4): 23% | inhibition at 0.03 µM ([4]; 0.03 μM, N=2, Example 4): 37% | inhibition at 0.1 µM ([4]; 0.1 μM, N=2, Example 4): 58% | inhibition at 0.3 µM ([4]; 0.3 μM, N=2, Example 4): 75% | inhibition at 1 µM ([4]; 1 μM, N=2, Example 4): 87% | inhibition at 3 µM ([4]; 3 μM, N=2, Example 4): 93% | inhibition at 10 µM ([4]; N=2, Example 3): 99% | inhibition at 10 µM ([4]; N=2, Example 4): 96% | IC50 ([4]; Example 4): 63 nM | inhibition at 10 µM [5]: 27% | inhibition at 10 µM [6]: 7% | inhibition at 10 µM [7]: -1% | inhibition at 10 µM [8]: 0% | inhibition at 10 µM [9]: 14% | Mutations or biologically relevant clastogenic effects [10]: does not induce mutations or biologically relevant clastogenic effects
